In series [1] the target is T1, human calcitonin receptor (hCTR2) (Homo sapiens, UniProt P30988).
T1 construct: expressed in transfected cells
T1 sequence (P30988 25-474): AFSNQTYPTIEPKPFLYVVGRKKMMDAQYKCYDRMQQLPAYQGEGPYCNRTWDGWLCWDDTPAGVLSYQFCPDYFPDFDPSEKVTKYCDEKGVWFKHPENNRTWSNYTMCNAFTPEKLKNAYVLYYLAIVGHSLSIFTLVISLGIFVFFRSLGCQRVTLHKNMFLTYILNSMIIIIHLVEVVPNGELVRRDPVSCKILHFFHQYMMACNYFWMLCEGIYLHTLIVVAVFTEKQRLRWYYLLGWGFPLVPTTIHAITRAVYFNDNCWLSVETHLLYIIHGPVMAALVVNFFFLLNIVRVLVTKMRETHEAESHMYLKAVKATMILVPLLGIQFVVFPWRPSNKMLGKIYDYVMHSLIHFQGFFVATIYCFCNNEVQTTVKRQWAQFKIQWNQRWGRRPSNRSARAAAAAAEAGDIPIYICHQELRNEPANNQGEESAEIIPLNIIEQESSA
The experiment in a line: hCTR2 assay: induction of cAMP (AlphaScreen cAMP Assay kit) in COS7 cells expressing hCTR2. In kind it is cell-based. The essentials:
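Stable hCTR2 clone in RAMP-naive COS7 cells; peptides titrated in Tyrode buffer (pH 7.4) with 100 µM IBMX, 0.1% casein, 15 min at 37° C. cAMP read by AlphaScreen after lysis; EC50 and efficacy relative to pramlintide from 4PL fit.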
On the technique in general: Bead proximity is the source of the signal in Alpha formats.

A short description of series [2]: Solubility assessment (turbidity absorbance at 325 nm). Particulars: stock 2 mg/ml diluted 1:1, ambient temperature (typically 25°C), n=1; for Solubility, Acetate buffer pH 4: 100 mM acetate buffer pH 4.0; for Solubility, Acetate buffer pH 5: 100 mM acetate buffer pH 5.0; for Solubility, Histidine buffer pH 6: 100 mM histidine buffer pH 6.0; for Solubility, Histidine buffer pH 7: 100 mM histidine buffer pH 7.0; for Solubility, Phosphate buffer pH 6: 100 mM phosphate buffer pH 6.0; for Solubility, Phosphate buffer pH 7: 100 mM phosphate buffer pH 7.0; for Solubility, Phosphate buffer pH 7.5: 100 mM phosphate buffer pH7.5. It counts as physicochemical. The gist of the method: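 Peptide stock (2 mg/ml) in water acidified to pH 2.5 with HCl was diluted 1:1 into 100 mM acetate (pH 4.0, 5.0), histidine (pH 6.0, 7.0) or phosphate (pH 6.0, 7.0, 7.5) buffer. A280 and A325 were read at about 25°C, n=1. A325 ≤ 0.02 meant solubility ≥ 1 mg/ml.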

Structures are written as SMILES. Numbered stars: 1 amine (or outer) side, 2 acyl side, 3 side chain; on linkers, the order of the positions; unused ones are H or OH. Bridge positions count the residues as written; N and C are the ends. Square brackets hold non-standard residues; d marks the D form. Peptide text beside a SMILES is read from it. * marks the point of attachment. C18 diacid = O=C(O)CCCCCCCCCCCCCCCCC(=O)*; C16 diacid = O=C(O)CCCCCCCCCCCCCCC(=O)*; γGlu = O=C(O)[C@H](CCC(=O)[*:2])N[*:1]; Palmitoyl = CCCCCCCCCCCCCCCC(=O)*; NMeI = CC[C@H](C)[C@H](NC)C(=O)O; Myristoyl = CCCCCCCCCCCCCC(=O)*; Sar = CNCC(=O)O

Broadly, the EC50 is the midpoint of the concentration-response curve. In the case of `CC[C@H](C)[C@@H](C(=O)N[C@@H](CC(C)C)C(=O)N[C@@H](CO)C(=O)N[C@@H](CO)C(=O)N[C@H](C(=O)N[C@@H](CC(N)=O)C(=O)N[C@H](C(=O)NCC(=O)N[C@@H](CO)C(=O)N[C@@H](CC(N)=O)C(=O)N[C@H](C(=O)N1CCC[C@H]1C(N)=O)[C@@H](C)O)C(C)C)[C@@H](C)O)N(C)C(=O)[C@H](C)NC(=O)CN(C)C(=O)[C@H](Cc1ccccc1)NC(=O)[C@H](CC(N)=O)NC(=O)[C@H](CC(N)=O)NC(=O)[C@H](CO)NC(=O)[C@H](CO)NC(=O)[C@H](CCCNC(=N)N)NC(=O)[C@H](Cc1c[nH]cn1)NC(=O)[C@H](CC(C)C)NC(=O)[C@H](Cc1ccccc1)NC(=O)[C@H](CCC(=O)O)NC(=O)[C@H](C)NC(=O)[C@H](CC(C)C)NC(=O)[C@H](CCCNC(=N)N)NC(=O)[C@H](CCC(N)=O)NC(=O)[C@@H](NC(=O)[C@H](C)NC(=O)[C@@H]1CSSC[C@H](NC(=O)[C@H](CCCNC(=N)N)NC(=O)CC[C@H](NC(=O)CCCCCCCCCCCCCCCCC(=O)O)C(=O)O)C(=O)N[C@@H](CC(N)=O)C(=O)N[C@@H]([C@@H](C)O)C(=O)N[C@@H](C)C(=O)N[C@@H]([C@@H](C)O)C(=O)N1)[C@@H](C)O` [Compound 89, [17CD]-isoGlu-RC()NTATC()ATQRLAEFLHRSSNNF-Gly(Me)-A-Ile(Me)-LSSTNVGSNTP-NH2] ({C18 diacid-γGlu}-RCNTATCATQRLAEFLHRSSNNF[Sar]A[NMeI]LSSTNVGSNTP-NH2; disulfide 2-7), the half-maximal effective concentration (EC50) in series [1] worked out at 0.054 nM. For the same compound, in series [2], the “Solubility, Acetate buffer pH 4” value is “SS (SS indicates solubility ≥ 1mg/ml)”; the “Solubility, Acetate buffer pH 5” value is given as “SS (SS indicates solubility ≥ 1mg/ml)”; the “Solubility, Histidine buffer pH 6” value is listed as “SS (SS indicates solubility ≥ 1mg/ml)”; the “Solubility, Histidine buffer pH 7” value is “SS (SS indicates solubility ≥ 1mg/ml)”. In addition, in series [2], the “Solubility, Phosphate buffer pH 6” value is reported as “SS (SS indicates solubility ≥ 1mg/ml)”; the “Solubility, Phosphate buffer pH 7” value is on record as “SS (SS indicates solubility ≥ 1mg/ml)”; the “Solubility, Phosphate buffer pH 7.5” value is given as “SS (SS indicates solubility ≥ 1mg/ml)”.

For the compound `CC[C@H](C)[C@@H](C(=O)N[C@@H](CC(C)C)C(=O)N[C@@H](CO)C(=O)N[C@@H](CO)C(=O)N[C@H](C(=O)N[C@@H](CC(N)=O)C(=O)N[C@H](C(=O)NCC(=O)N[C@@H](CO)C(=O)N[C@@H](CC(N)=O)C(=O)N[C@H](C(=O)N1CCC[C@H]1C(N)=O)[C@@H](C)O)C(C)C)[C@@H](C)O)N(C)C(=O)[C@H](C)NC(=O)CN(C)C(=O)[C@H](Cc1ccccc1)NC(=O)[C@H](CC(N)=O)NC(=O)[C@H](CC(N)=O)NC(=O)[C@H](CO)NC(=O)[C@H](CO)NC(=O)[C@H](CCCNC(=N)N)NC(=O)[C@H](Cc1c[nH]cn1)NC(=O)[C@H](CC(C)C)NC(=O)[C@H](Cc1ccccc1)NC(=O)[C@H](CCC(=O)O)NC(=O)[C@H](C)NC(=O)[C@H](CC(C)C)NC(=O)[C@H](CCCNC(=N)N)NC(=O)[C@H](CCC(N)=O)NC(=O)[C@@H](NC(=O)[C@H](C)NC(=O)[C@@H]1CSSC[C@H](NC(=O)[C@H](CCCNC(=N)N)NC(=O)CC[C@H](NC(=O)CCCCCCCCCCCCCCC(=O)O)C(=O)O)C(=O)N[C@@H](CC(N)=O)C(=O)N[C@@H]([C@@H](C)O)C(=O)N[C@@H](C)C(=O)N[C@@H]([C@@H](C)O)C(=O)N1)[C@@H](C)O` [Compound 90, [15CD]-isoGlu-RC()NTATC()ATQRLAEFLHRSSNNF-Gly(Me)-A-Ile(Me)-LSSTNVGSNTP-NH2] ({C16 diacid-γGlu}-RCNTATCATQRLAEFLHRSSNNF[Sar]A[NMeI]LSSTNVGSNTP-NH2; disulfide 2-7), in series [1], the EC50 was determined as 0.066 nM. Also, in series [2], the “Solubility, Acetate buffer pH 4” value is “SS (SS indicates solubility ≥ 1mg/ml)”; the “Solubility, Acetate buffer pH 5” value is recorded as “SS (SS indicates solubility ≥ 1mg/ml)”; the “Solubility, Histidine buffer pH 6” value is reported as “SS (SS indicates solubility ≥ 1mg/ml)”; the “Solubility, Histidine buffer pH 7” value is listed as “SS (SS indicates solubility ≥ 1mg/ml)”. Further, in series [2], the “Solubility, Phosphate buffer pH 6” value is recorded as “SS (SS indicates solubility ≥ 1mg/ml)”; the “Solubility, Phosphate buffer pH 7” value is on record as “SS (SS indicates solubility ≥ 1mg/ml)”; the “Solubility, Phosphate buffer pH 7.5” value was “SS (SS indicates solubility ≥ 1mg/ml)”.

Turning to `CCCCCCCCCCCCCC(=O)N[C@@H](CCC(=O)N[C@@H](CCCNC(=N)N)C(=O)N[C@H]1CSSC[C@@H](C(=O)N[C@@H](C)C(=O)N[C@H](C(=O)N[C@@H](CCC(N)=O)C(=O)N[C@@H](CCCNC(=N)N)C(=O)N[C@@H](CC(C)C)C(=O)N[C@@H](C)C(=O)N[C@@H](CCC(=O)O)C(=O)N[C@@H](Cc2ccccc2)C(=O)N[C@@H](CC(C)C)C(=O)N[C@@H](Cc2c[nH]cn2)C(=O)N[C@@H](CCCNC(=N)N)C(=O)N[C@@H](CO)C(=O)N[C@@H](CO)C(=O)N[C@@H](CC(N)=O)C(=O)N[C@@H](CC(N)=O)C(=O)N[C@@H](Cc2ccccc2)C(=O)N(C)CC(=O)N[C@@H](C)C(=O)N(C)[C@H](C(=O)N[C@@H](CC(C)C)C(=O)N[C@@H](CO)C(=O)N[C@@H](CO)C(=O)N[C@H](C(=O)N[C@@H](CC(N)=O)C(=O)N[C@H](C(=O)NCC(=O)N[C@@H](CO)C(=O)N[C@@H](CC(N)=O)C(=O)N[C@H](C(=O)N2CCC[C@H]2C(N)=O)[C@@H](C)O)C(C)C)[C@@H](C)O)[C@@H](C)CC)[C@@H](C)O)NC(=O)[C@H]([C@@H](C)O)NC(=O)[C@H](C)NC(=O)[C@H]([C@@H](C)O)NC(=O)[C@H](CC(N)=O)NC1=O)C(=O)O` [Compound 91, [Tetradecanoyl]-isoGlu-RC()NTATC()ATQRLAEFLHRSSNNF-Gly(Me)-A-Ile(Me)-LSSTNVGSNTP-NH2] ({Myristoyl-γGlu}-RCNTATCATQRLAEFLHRSSNNF[Sar]A[NMeI]LSSTNVGSNTP-NH2; disulfide 2-7), the EC50 in series [1] was determined as 0.047 nM. Further, in series [2], the “Solubility, Acetate buffer pH 4” value was “SS (SS indicates solubility ≥ 1mg/ml)”; the “Solubility, Acetate buffer pH 5” value was “SS (SS indicates solubility ≥ 1mg/ml)”; the “Solubility, Histidine buffer pH 6” value is recorded as “SS (SS indicates solubility ≥ 1mg/ml)”; the “Solubility, Histidine buffer pH 7” value is “SS (SS indicates solubility ≥ 1mg/ml)”. Moreover, in series [2], the “Solubility, Phosphate buffer pH 6” value is reported as “SS (SS indicates solubility ≥ 1mg/ml)”; the “Solubility, Phosphate buffer pH 7” value is on record as “SS (SS indicates solubility ≥ 1mg/ml)”; the “Solubility, Phosphate buffer pH 7.5” value is recorded as “SS (SS indicates solubility ≥ 1mg/ml)”.

Consider `CCCCCCCCCCCCCCCC(=O)N[C@@H](CCC(=O)N[C@@H](CCCNC(=N)N)C(=O)N[C@H]1CSSC[C@@H](C(=O)N[C@@H](C)C(=O)N[C@H](C(=O)N[C@@H](CCC(N)=O)C(=O)N[C@@H](CCCNC(=N)N)C(=O)N[C@@H](CC(C)C)C(=O)N[C@@H](C)C(=O)N[C@@H](CCC(=O)O)C(=O)N[C@@H](Cc2ccccc2)C(=O)N[C@@H](CC(C)C)C(=O)N[C@@H](Cc2c[nH]cn2)C(=O)N[C@@H](CCCNC(=N)N)C(=O)N[C@@H](CO)C(=O)N[C@@H](CO)C(=O)N[C@@H](CC(N)=O)C(=O)N[C@@H](CC(N)=O)C(=O)N[C@@H](Cc2ccccc2)C(=O)N(C)CC(=O)N[C@@H](C)C(=O)N(C)[C@H](C(=O)N[C@@H](CC(C)C)C(=O)N[C@@H](CO)C(=O)N[C@@H](CO)C(=O)N[C@H](C(=O)N[C@@H](CC(N)=O)C(=O)N[C@H](C(=O)NCC(=O)N[C@@H](CO)C(=O)N[C@@H](CC(N)=O)C(=O)N[C@H](C(=O)N2CCC[C@H]2C(N)=O)[C@@H](C)O)C(C)C)[C@@H](C)O)[C@@H](C)CC)[C@@H](C)O)NC(=O)[C@H]([C@@H](C)O)NC(=O)[C@H](C)NC(=O)[C@H]([C@@H](C)O)NC(=O)[C@H](CC(N)=O)NC1=O)C(=O)O` [Compound 92, [Hexadecanoyl]-isoGlu-RC()NTATC()ATQRLAEFLHRSSNNF-Gly(Me)-A-Ile(Me)-LSSTNVGSNTP-NH2] ({Palmitoyl-γGlu}-RCNTATCATQRLAEFLHRSSNNF[Sar]A[NMeI]LSSTNVGSNTP-NH2; disulfide 2-7), for which the EC50 in series [1] was determined as 0.054 nM. Also, in series [2], the “Solubility, Acetate buffer pH 4” value was “SS (SS indicates solubility ≥ 1mg/ml)”; the “Solubility, Acetate buffer pH 5” value was “SS (SS indicates solubility ≥ 1mg/ml)”; the “Solubility, Histidine buffer pH 6” value is on record as “SS (SS indicates solubility ≥ 1mg/ml)”; the “Solubility, Histidine buffer pH 7” value is given as “SS (SS indicates solubility ≥ 1mg/ml)”. Moreover, in series [2], the “Solubility, Phosphate buffer pH 6” value is “SS (SS indicates solubility ≥ 1mg/ml)”; the “Solubility, Phosphate buffer pH 7” value is “SS (SS indicates solubility ≥ 1mg/ml)”; the “Solubility, Phosphate buffer pH 7.5” value is listed as “SS (SS indicates solubility ≥ 1mg/ml)”.

The values above are taken from patent publication EP3046573B1, “AMYLIN ANALOGUES” (Zealand Pharma A/S, priority 2013, dated 2015).
